What was measured:
BT-474 cancer cells = assay: Inhibitory activity against proliferation of BT-474 cancer cells (CellTiter-Glo); format: cell-based; conditions: Homo sapiens, BT-474 ErbB2-overexpressing cancer cells, 120 hours after treatment
Method: To evaluate the inhibitory activity of a compound according to the present invention against the proliferation of ErbB2-overexpressing cancer cells, the following experiment were performed.
10% FBS-added McCOY'S 5A was used for SK-BR-3 cancer cells. 20% FBS-added RPMI-1640 was used for BT-474 cancer cells. Transduced Ba/F3 cells were cultured in a RPMI-1640 medium to which 1 μg/ml puromycin (Invitrogen) was added.
48 hours before compound treatment, each type of the SK-BR-3 and BT-474 cells were seeded at 5,000 cells/well in a white clear bottom 96 well plate (Corning). The compound was diluted in dimethyl sulfoxide (SK-BR-3: 3-fold dilution, a total of 12 concentrations, BT-474: […], a total of 12 concentrations) and injected at 1 μl to have the final concentration of 0.2 nM to 5 μM. As for measurement of live cells, 120 hours after treatment with the compound, a CellTiter-Glo luminescent cell-viability reagent (Promega) was used to store the cells at room temperature for 10 minutes, followed by measurement of luminescence using a reader (SynergyNeo, Biotek). Each test was repeated three times.
The result values were calculated as a cell growth rate (%) compared to the control group. A graph was plotted using the GraphPad Prism version 8.3.0 program, and GI50 values were calculated.

SK-BR-3 cancer cells = assay: Inhibitory activity against proliferation of SK-BR-3 cancer cells (CellTiter-Glo); format: cell-based; conditions: Homo sapiens, SK-BR-3, 120 h, ErbB2-overexpressing SK-BR-3 cells, 120 hours after treatment
Outline: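 Cells seeded 48 h before dosing (SK-BR-3 in McCOY'S 5A + 10% FBS; BT-474 in RPMI-1640 + 20% FBS), then exposed 120 h to 12 concentrations, 0.2 nM-5 μM final. Viability by CellTiter-Glo luminescence; GI50 from growth rate vs control, triplicate runs.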

Question: For `C=CC(=O)Nc1cc(Nc2cc(N3OCC[C@@H]3c3cc(F)cc(-c4cccc(F)c4)c3)ncn2)c(OC)cc1N1CCC(N2CCN(C3CC3)CC2)CC1` [Example 248, (R)-N-(2-(4-(4-cyclopropylpiper-azin-1-yl)piperidin-1-yl)-5-((6-(3-(3′,5-difluoro-[1,1′-biphenyl]-3-yl)-isoxazolidin-2-yl)-pyrimidin-4-yl)-amino)-4-methoxy-phenyl)acrylamide], which GI50 (BT-474 cancer cells) is on record?
Answer: Its GI50 is under 0.05 µM.

Question: `C=CC(=O)Nc1cc(Nc2cc(N3OCC[C@@H]3c3cccc(-c4cccc(C(N)=O)c4)c3)ncn2)c(OC)cc1N1CCN(C)CC1` [Example 325, (R)-3′-(2-(6-((5-acrylamido-2-methoxy-4-(4-methylpiperazin-1-yl)phenyl)-amino)pyrimidin-4-yl)isoxazolidin-3-yl)-[1,1′-biphen-yl]-3-carboxamide] was tested. Which GI50 (BT-474 cancer cells) did it give?
Answer: Its GI50 is under 0.05 µM.

Question: With `C=CC(=O)Nc1cc(Nc2cc(N3OCC[C@@H]3c3cccc(-c4cccc(F)c4F)c3)ncn2)c(OC)cc1N1CCN(C)[C@@H](C)C1` [Example 326, N-(5-((6-((R)-3-(2′,3′-difluoro-[1,1′-biphenyl]-3-yl)isoxazolidin-2-yl)pyrimidin-4-yl)amino)-2-((S)-3,4-dimethylpiper-azin-1-yl)-4-meth-oxyphenyl)acryl-amide] as the compound, how does the GI50 (BT-474 cancer cells) read?
Answer: The GI50 was under 0.05 µM.

Question: `C=CC(=O)Nc1cc(Nc2cc(N3OCC[C@@H]3c3cccc(-c4ccc(F)cc4F)c3)ncn2)c(OC)cc1N1CCN(C)[C@@H](C)C1` [Example 327, N-(5-((6-((R)-3-(2′,4′-difluoro-[1,1′-biphenyl]-3-yl)-isoxazolidin-2-yl)-pyrimidin-4-yl)-amino)-2-((S)-3,4-dimethylpiperazin-1-yl)-4-methoxy-phenyl)acrylamide] was tested. Which GI50 (BT-474 cancer cells) did it give?
Answer: The GI50 was under 0.05 µM.

Question: For `C=CC(=O)Nc1cc(Nc2cc(N3OCC[C@@H]3c3cccc(-c4cccc(F)c4)c3)ncn2)c(OC)cc1N1C[C@@H](C)N(C(=O)OC(C)(C)C)[C@@H](C)C1` [Example 328, tert-butyl (2S,6R)-4-(2-acrylamido-4-((6-((R)-3-(3′-fluoro-[1,1′-biphen-yl]-3-yl)isoxazol-idin-2-yl)pyrim-idin-4-yl)amino)-5-methoxyphenyl)-2,6-dimethylpiper-azine-1-carboxylate], which GI50 (BT-474 cancer cells) is on record?
Answer: Its GI50 is 0.05 to 0.5 µM.

Question: With `C=CC(=O)Nc1cc(Nc2cc(N3OCC[C@@H]3c3cccc(-c4cccc(F)c4)c3)ncn2)c(OC)cc1N1C[C@@H](C)N[C@@H](C)C1` [Example 329, N-(2-((3S,5R)-3,5-dimethyl-piperazin-1-yl)-5-((6-((R)-3-(3′-fluoro-[1,1′-bi-phenyl]-3-yl)-isoxazolidin-2-yl)pyrimidin-4-yl)amino)-4-meth-oxyphenyl)acryl-amide] as the compound, how does the GI50 (BT-474 cancer cells) read?
Answer: Its GI50 is under 0.05 µM.

Question: For `C=CC(=O)Nc1cc(Nc2cc(N3OCC[C@@H]3c3cc(F)cc(-c4cccc(F)c4)c3)ncn2)c(OC)cc1N1CCN(C)CC1` [Example compound 130, (R)-N-(5-((6-(3-(3′,5-difluoro-[1,1′-biphenyl]-3-yl)isoxazolidin-2-yl)pyrimidin-4-yl)amino)-4-methoxy-2-(4-methylpiperazin-1-yl)phenyl)acrylamide], which GI50 (SK-BR-3 cancer cells) is on record?
Answer: The GI50 was under 0.05 µM.

Question: With `C=CC(=O)Nc1cc(Nc2cc(N3OCC[C@@H]3c3cc(F)cc(-c4cccc(F)c4)c3)ncn2)c(OC)cc1N1CCC(N2CCN(C3CC3)CC2)CC1` [Example compound 131, (R)-N-(2-(4-(4-cyclopropylpiperazin-1-yl)piperidin-1-yl)-5-((6-(3-(3′,5-difluoro-[1,1′-biphenyl]-3-yl)isoxazolidin-2-yl)pyrimidin-4-yl)amino)-4-methoxyphenyl)acrylamide] as the compound, how does the GI50 (SK-BR-3 cancer cells) read?
Answer: The GI50 was under 0.05 µM.

Question: With `C=CC(=O)Nc1cc(Nc2cc(N3OCCC3c3cc(F)cc(OCc4nccs4)c3)ncn2)c(OC)cc1N1CCN(C)CC1` (centres unmarked) [Example compound 132, N-(5-((6-(3-(3-fluoro-5-(thiazol-2-ylmethoxy)phenyl)isoxazolidin-2-yl)pyrimidin-4-yl)amino)-4-methoxy-2-(4-methylpiperazin-1-yl)phenyl)acrylamide] as the compound, how does the GI50 (SK-BR-3 cancer cells) read?
Answer: Its GI50 is under 0.05 µM.

Question: `C=CC(=O)Nc1cc(Nc2cc(N3OCC[C@@H]3c3cc(F)cc(-c4ccco4)c3)ncn2)c(OC)cc1N1CCN(C)CC1` [Example compound 133, (R)-N-(5-((6-(3-(3-fluoro-5-(furan-2-yl)phenyl)isoxazolidin-2-yl)pyrimidin-4-yl)amino)-4-methoxy-2-(4-methylpiperazin-1-yl)phenyl)acrylamide] was tested. Which GI50 (SK-BR-3 cancer cells) did it give?
Answer: The GI50 was under 0.05 µM.

Question: For `C=CC(=O)Nc1cc(Nc2cc(N3OCC[C@@H]3c3cc(F)cc(-c4ccco4)c3)ncn2)c(OC)cc1N1CCC(N2CCN(C3CC3)CC2)CC1` [Example compound 134, (R)-N-(2-(4-(4-cyclopropylpiperazin-1-yl)piperidin-1-yl)-5-((6-(3-(3-fluoro-5-(furan-2-yl)phenyl)isoxazolidin-2-yl)pyrimidin-4-yl)amino)-4-methoxyphenyl)acrylamide], which GI50 (SK-BR-3 cancer cells) is on record?
Answer: The GI50 was under 0.05 µM.

Question: With `C=CC(=O)Nc1cc(Nc2cc(N3OCCC3c3cccc(C#Cc4ccccc4)c3)ncn2)c(OC)cc1N1CCN(C)CC1` (centres unmarked) [Example compound 137, N-(4-methoxy-2-(4-methylpiperazin-1-yl)-5-((6-(3-(3-(phenylethynyl)phenyl)isoxazolidin-2-yl)pyrimidin-4-yl)amino)phenyl)acrylamide] as the compound, how does the GI50 (SK-BR-3 cancer cells) read?
Answer: Its GI50 is 0.05 to 0.5 µM.

Question: How did the GI50 (SK-BR-3 cancer cells) turn out when `C=CC(=O)Nc1cc(Nc2cc(N3OCCC3c3cccc(C#Cc4ccccc4)c3)ncn2)c(OC)cc1N1CCC(N2CCN(C3CC3)CC2)CC1` (centres unmarked) [Example compound 138, N-(2-(4-(4-cyclopropylpiperazin-1-yl)piperidin-1-yl)-4-methoxy-5-((6-(3-(3-(phenylethynyl)phenyl)isoxazolidin-2-yl)pyrimidin-4-yl)amino)phenyl)acrylamide] was run?
Answer: Its GI50 is 0.05 to 0.5 µM.

Question: For `C=CC(=O)Nc1cc(Nc2cc(N3OCCC3c3cccc(C#CC(C)(C)C)c3)ncn2)c(OC)cc1N1CCN(C)CC1` (centres unmarked) [Example compound 139, N-(5-((6-(3-(3-(3,3-dimethylbut-1-yn-1-yl)phenyl)isoxazolidin-2-yl)pyrimidin-4-yl)amino)-4-methoxy-2-(4-methylpiperazin-1-yl)phenyl)acrylamide], which GI50 (SK-BR-3 cancer cells) is on record?
Answer: The GI50 was 0.05 to 0.5 µM.

Question: Which GI50 (SK-BR-3 cancer cells) does the source give for `C=CC(=O)Nc1cc(Nc2cc(N3OCCC3c3cccc(C#CC(C)(C)C)c3)ncn2)c(OC)cc1N1CCC(N2CCN(C3CC3)CC2)CC1` (centres unmarked) [Example compound 140, N-(2-(4-(4-cyclopropylpiperazin-1-yl)piperidin-1-yl)-5-((6-(3-(3-(3,3-dimethylbut-1-yn-1-yl)phenyl)isoxazolidin-2-yl)pyrimidin-4-yl)amino)-4-methoxyphenyl)acrylamide] here?
Answer: Its GI50 is 0.05 to 0.5 µM.

Question: Which GI50 (SK-BR-3 cancer cells) does the source give for `C=CC(=O)Nc1cc(Nc2cc(N3OCC[C@@H]3c3ccc(F)c(Oc4cccc(F)c4)c3)ncn2)c(OC)cc1N1CCC(N2CCN(C3CC3)CC2)CC1` [Example compound 152, (R)-N-(2-(4-(4-cyclopropylpiperazin-1-yl)piperidin-1-yl)-5-((6-(3-(4-fluoro-3-(3-fluorophenoxy)phenyl)isoxazolidin-2-yl)pyrimidin-4-yl)amino)-4-methoxyphenyl)acrylamide] here?
Answer: Its GI50 is under 0.05 µM.

Question: How did the GI50 (SK-BR-3 cancer cells) turn out when `C=CC(=O)Nc1cc(Nc2cc(N3OCC[C@@H]3c3ccc(F)c(Oc4cccc(F)c4)c3)ncn2)c(OC)cc1N1CCN(C)CC1` [Example compound 153, (R)-N-(5-((6-(3-(4-fluoro-3-(3-fluorophenoxy)phenyl)isoxazolidin-2-yl)pyrimidin-4-yl)amino)-4-methoxy-2-(4-methylpiperazin-1-yl)phenyl)acrylamide] was run?
Answer: Its GI50 is 0.05 to 0.5 µM.
